Data reported in patent publication US8293705B2, “HCV protease inhibitors and uses thereof” (Avila Therapeutics, Inc., priority 2007, dated 2012).
Like-named read-outs stand apart in the source and are kept apart here.

Experiments:
[1] = tested on: HCV RNA replicon in cell line ET (luc-ubi-neo/ET), human Huh7 hepatoma; test: Replicon luciferase assay, Example 26; assay type: cell-based; details: Hepatitis C virus, Huh-7, assay of Example 26, 72 hr; for EC50: read-out: Inhibition, Replicon, EC50 value; for EC90: read-out: Inhibition, Replicon, EC90 value
Method: The compounds were assayed to evaluate the antiviral activity and cytotoxicity of compounds using replicon-derived luciferase activity. This assay used the cell line ET (luc-ubi-neo/ET), which is a human Huh7 hepatoma cell line that contains an HCV RNA replicon with a stable luciferase (Luc) reporter and cell culture-adaptive mutations. The ET cell line was grown in a 5% CO2 incubator at 37° C. in Dulbecco's modified essential media (DMEM) supplemented with 2 mM L-glutamine, nonessential amino acids, 100 U of penicillin/ml, 100 μg of streptomycin/mL, and 10% fetal bovine serum. G418 (Geneticin; Invitrogen) was added at a final concentration of 400 ug//mL.
All cell culture reagents were obtained from Invitrogen (Carlsbad). Cells were trypsinized (1% trypsin:EDTA) and plated out at 5×10^3 cells/well in white 96-well assay plates (Costar) dedicated to cell number (cytotoxicity) or antiviral activity assessments. Test compounds were added at six 3-fold concentrations each and the assay was run in DMEM, 5% FBS, 1% pen-strep, 1% glutamine, 1% non essential amino acid. Human interferon alpha-2b (PBL Biolabs, New Brunswick, N.J.) was included in each run as a positive control compound. Cells were processed 72 hr post test compound addition when the cells were still subconfluent. Antiviral activity was measured by analyzing replicon-derived luciferase activity using the Steady-Glo Luciferase Assay System (Promega, Madison, Wis.) according to manufacturer's instruction. The number of cells in each well was determined by Cell Titer Blue Assay (Promega). Compound profile was derived by calculating applicable EC50 (effective concentration inhibiting virus replication by 50%), EC90 (effective concentration inhibiting virus replication by 90%), IC50 (concentration decreasing cell viability by 50%) and SI50 (selective index: […]) values.

[2] = target: T1, HCV NS3/4A 1b protease R155K (Hepatitis C virus genotype 1b, UniProt Q9WMX2, R1181K); test: HCV protease FRET assay (IC50_APP), Example 16; assay type: biochemical; details: reaction started immediately after enzyme addition, read-out: Inhibition (apparent IC50, IC50_APP), HCV R155K
T1 construct: 10× stocks of NS3/4A protease enzyme from Bioenza (Mountain View, Calif.); purchased Bioenza (Mountain View, Calif.)
Method: (§1) The following protocol was used to generate “apparent” IC50 (IC50 APP) values as depicted in Table 6, below. […] 5 μL of each enzyme were added to Corning (#3575) 384-well, black, microtiter plates (Corning, N.Y.) after spotting a 0.5 μL volume of 50% DMSO and serially diluted compounds prepared in 50% DMSO. Protease reactions were immediately started after enzyme addition with the addition of 45 μL of the FRET substrate and monitored for 60-90 minutes at λex485/λem520 in a Synergy^4 plate reader from BioTek (Winooski, Vt.). At the conclusion of each assay, progress curves from each well were examined for linear reaction kinetics and fit statistics (R^2, 95% confidence intervals, absolute sum of squares).
(§2) The compound numbers correspond to the compound numbers in Table 3. […] ;

[3] = target: T2, HCV NS3/4A 1b protease D168A (Hepatitis C virus genotype 1b, UniProt Q9WMX2, D1194A); test: HCV protease FRET assay (IC50_APP), Example 16; assay type: biochemical
T2 construct: 10× stocks of NS3/4A protease enzyme from Bioenza (Mountain View, Calif.); purchased Bioenza (Mountain View, Calif.)
Method: as §1, §2

[4] = target: T3, HCV NS3/4A 1b protease wild type (Hepatitis C virus genotype 1b, UniProt Q9WMX2); test: HCV protease FRET assay (IC50_APP), Example 16; assay type: biochemical
T3 construct: 10× stocks of NS3/4A protease enzyme from Bioenza (Mountain View, Calif.); purchased Bioenza (Mountain View, Calif.)
Method: as §1, §2

Row | Compound | EC50 [1] | EC90 [1] | IC50 [2] | IC50 [3] | IC50 [4] | IC50 ([3]; read-out: Inhibition (apparent IC50, IC50_APP), HCV D168A, FRET, reaction started immediately after enzyme addition) | IC50 ([4]; read-out: Inhibition (apparent IC50, IC50_APP), WT, FRET, reaction started immediately after enzyme addition)
1 | C=C[C@@H]1C[C@]1(NC(=O)[C@@H]1CC(OC(=O)N2Cc3cccc(F)c3C2)CN1C(=O)[C@@H](C)Nc1ccnc(Cl)n1)C(=O)NS(=O)(=O)C1CC1 (stereo partly drawn) [Compound I-49] | 1000 to 10000 nM | 1000 to 10000 nM | 1000 to 10000 nM | 1000 to 10000 nM | 100 to 1000 nM |  | 
2 | CC[C@@H]1C[C@]1(NC(=O)[C@@H]1C[C@@H](OC(=O)N2Cc3cccc(F)c3C2)CN1C(=O)[C@H](CC(=O)C=C(C)C)NC(=O)OC(C)(C)C)C(=O)NS(=O)(=O)C1CC1 [Compound I-60] |  |  | 100 to 1000 nM |  | < 10 nM |  | 
3 | C=CC(=O)N(C)CC(NC(=O)C12CCC(C(=O)OC)(CC1)CC2)C(=O)N1CC(OC(=O)N2Cc3cccc(F)c3C2)C[C@H]1C(=O)N[C@]1(C(=O)NS(=O)(=O)C2CC2)C[C@H]1C=C (stereo partly drawn) [Compound I-52] | 1000 to 10000 nM | 1000 to 10000 nM |  | 1000 to 10000 nM | 10 to 100 nM |  | 
4 | C=C[C@@H]1C[C@]1(NC(=O)[C@@H]1CC(OC(=O)N2Cc3cccc(F)c3C2)CN1C(=O)[C@H](CC(=O)/C(C)=C/C)NC(=O)OC(C)(C)C)C(=O)NS(=O)(=O)C1CC1 (stereo partly drawn) [Compound I-70] |  |  | 100 to 1000 nM | 100 to 1000 nM | < 10 nM |  | 
5 | CC(C)(C)OC(=O)N[C@H]1CN(C(=O)CCl)CCC/C=C\[C@@H]2C[C@@]2(C(=O)N(C(=O)CCl)S(=O)(=O)C2CC2)NC(=O)[C@@H]2CC(OC(=O)N3Cc4cccc(F)c4C3)CN2C1=O (stereo partly drawn) [Compound I-48] |  |  | 100 to 1000 nM | 100 to 1000 nM | 10 to 100 nM |  | 
6 | C=CC(=O)N1CC/C=C\[C@@H]2C[C@@]2(C(=O)NS(=O)(=O)C2CC2)NC(=O)[C@@H]2CC(OC(=O)N3Cc4cccc(F)c4C3)CN2C(=O)[C@@H](NC(=O)OC(C)(C)C)CC1 (stereo partly drawn) [Compound I-36] | 100 to 1000 nM | 100 to 1000 nM | < 10 nM | < 10 nM | < 10 nM |  | 
7 | CC[C@@H]1C[C@]1(NC(=O)[C@@H]1CC(OC(=O)N2Cc3cccc(F)c3C2)CN1C(=O)[C@H](CCC(=O)C=C(C)C)NC(=O)OC(C)(C)C)C(=O)NS(=O)(=O)C1CC1 (stereo partly drawn) [Compound I-33] |  |  | 100 to 1000 nM | 1000 to 10000 nM | < 10 nM |  | 
8 | CC(C)(C)OC(=O)N[C@H]1CCCN(S(=O)(=O)c2ccccc2[N+](=O)[O-])C/C=C\[C@@H]2C[C@@]2(C(=O)NS(=O)(=O)C2CC2)NC(=O)[C@@H]2CC(OC(=O)N3Cc4cccc(F)c4C3)CN2C1=O (stereo partly drawn) [Compound I-54] | 100 to 1000 nM | > 10000 nM | 10 to 100 nM |  |  | 10 to 100 nM | < 10 nM
9 | C=C[C@@H]1C[C@]1(NC(=O)[C@@H]1C[C@@H](OC(=O)N2Cc3cccc(F)c3C2)CN1C(=O)[C@H](COC(=O)/C=C/C=C/C)NC(=O)OC(C)(C)C)C(=O)NS(=O)(=O)C1CC1 [Compound I-67] |  |  | 100 to 1000 nM | 100 to 1000 nM | < 10 nM |  | 
10 | CC(C)(C)OC(=O)N[C@H]1COC(=O)/C=C/C=C\[C@@H]2C[C@@]2(C(=O)NS(=O)(=O)C2CC2)NC(=O)[C@@H]2C[C@@H](OC(=O)N3Cc4cccc(F)c4C3)CN2C1=O [Compound I-65] |  |  | 10 to 100 nM | 100 to 1000 nM | < 10 nM |  | 
11 | C=CC(=O)N1CC(C(NC(C)=O)C(=O)N2CC(OC(=O)N3Cc4cccc(F)c4C3)C[C@H]2C(=O)N[C@]2(C(=O)NS(=O)(=O)C3CC3)C[C@H]2C=C)C1 (stereo partly drawn) [Compound I-46] | 1000 to 10000 nM | 1000 to 10000 nM | < 10 nM | 10 to 100 nM | < 10 nM |  | 
12 | CC[C@@H]1C[C@]1(NC(=O)[C@@H]1C[C@@H]2CN1C(=O)[C@H](CCC(=O)C=C(C)C)NC(=O)OCC(C)(C)CC/C=C/c1cccc3c1CN(C3)C(=O)O2)C(=O)NS(=O)(=O)C1CC1 [Compound I-56] | < 10 nM |  | 100 to 1000 nM | 100 to 1000 nM | < 10 nM |  | 
